# Experimental data published in ChEMBL document CHEMBL4842322, “A naphthalimide-polyamine conjugate preferentially accumulates in hepatic carcinoma metastases as a lysosome-targeted antimetastatic agent” (Eur J Med Chem, 2021).
# Experiments:
# Type in all cases: functional, cell-based
# [1] = test system: A549; experiment: Cytotoxicity against human A549 cells assessed as inhibition of cell growth incubated for 48 hrs by MTT assay; conditions: A549, 48 h
# [2] = test system: Huh-7; experiment: Cytotoxicity against human Huh-7 cells assessed as inhibition of cell growth incubated for 48 hrs by MTT assay; conditions: Huh-7, 48 h
# [3] = test system: MCF7; experiment: Cytotoxicity against human MCF7 cells assessed as inhibition of cell growth incubated for 48 hrs by MTT assay; conditions: MCF7, 48 h
# [4] = test system: A549; experiment: Cytotoxicity against cisplatin-resistant human A549 cells assessed as inhibition of cell growth incubated for 48 hrs by MTT assay; conditions: A549, 48 h
# [5] = test system: MDA-MB-231; experiment: Cytotoxicity against human MDA-MB-231 cells assessed as inhibition of cell growth incubated for 48 hrs by MTT assay; conditions: MDA-MB-231, 48 h
# [6] = test system: HepG2; experiment: Cytotoxicity against human HepG2 cells assessed as inhibition of cell growth incubated for 48 hrs by MTT assay; conditions: HepG2, 48 h
Compound,IC50 [1],IC50 [2],IC50 [3],IC50 [4],IC50 [5],IC50 [6]
NCCCCNCCCCN1C(=O)c2cccc3c(NC(=O)CN)ccc(c23)C1=O,> 30 µM,22.9 µM,> 30 µM,> 30 µM,> 30 µM,> 30 µM
NCCCCNCCCN1C(=O)c2cccc3cc(NC(=O)CN)cc(c23)C1=O,> 30 µM,> 30 µM,> 30 µM,> 30 µM,> 30 µM,> 30 µM
CCCNCCCNCCCNCCCN1C(=O)c2cccc3c(NC(=O)CN)ccc(c23)C1=O,> 30 µM,5.39 µM,> 30 µM,> 30 µM,> 30 µM,> 30 µM
